According to patent publication US6716810B1, “Composition and method for regulation of body weight and associated conditions” (Eleanor Roosevelt Institute, priority 1998, dated 2004):
“Also recorded” adds a separate entry of the source.

Tests used:
Type in all cases: in vivo, mouse
[1] = tested on: POMC homozygous mutant female mice; assay: Daily intraperitoneal MSH analog in POMC homozygous mutant mice: body weight, food intake, coat pigmentation (Example 2); details: for weight loss, % of excess weight by 2 weeks: p<0.05 at day 16
Procedure: (§1) To test initially for the effect of peripheral melanocortins on weight change, we selected the stable agonist [Ac-Cys^4, D-Phe^7, Cys^10]α-MSH (4-13) (described in Cody et al., 1985, J. Med. Chem. 28, 583-588; incorporated herein by reference in its entirety). Briefly, [Ac-Cys^4, D-Phe^7, Cys^10]α-MSH (4-13) amide, having the cysteines connected by a disulfide bridge, was obtained from Peninsula Laboratories, CA. Lyophilized powder was dissolved in water at 1 mg/ml, which was diluted in PBS to 10 μg/mL. During the experiments, mice were maintained on a normal 12 h/12 h light/dark cycle with food and water ad libitum. Mice were fed standard laboratory rodent diet (#5001).
(§2) In order to see whether the α-MSH analog has an effect on food intake, we compared weight change and food intake in these mice for one week (see bars in FIGS. 4A and 4B) under MSH analog treatment and after MSH analog treatment was stopped (FIGS. 4C and 4D). During one week under MSH analog treatment mutant mice lost 0.5 g, while wildtype littermates gained 0.3 g; the food intake during this time was equivalent in both groups (20.7 g in wildtypes, and 22.7 g in mutants).
An effect of MSH could also be seen on coat pigmentation. […] Yellow coat pigmentation gradually reappeared after MSH treatment was terminated (data not shown).

wildtype female mice = assay: Daily intraperitoneal MSH analog in wildtype littermates: body weight, food intake (Example 2); details: for weight loss in wildtype littermates: 1 microgram i.p. daily, 16-day treatment
Procedure: as §1, §2

POMC null mutant mice = assay: Weight change and food intake under standard diet, MSH analog or high fat diet, POMC null mutant mice (Example 3); details: 1 or 2 μg i.p. once daily
Procedure: (§3) P values were determined by ANOVA. If the major component of weight regulation through the melanocortinergic pathway was the regulation of feeding behavior, the observed changes in body weight in is POMC null mutant mice should be paralleled by a similar pattern in food uptake. This, however, was not observed (FIGS. 5B and 5D and Table 1).

wildtype mice = assay: Weight change and food intake under standard diet, MSH analog or high fat diet, wildtype mice (Example 3); details: 1 or 2 μg i.p. once daily
Procedure: as §3

obese lep^ob/ob mice = assay: Weight change in obese lep ob/ob mice treated with leptin, α-MSH analog or both (Example 4); details: 3 μg of each compound i.p. once daily; mice aged 2 months
Procedure: To assess a more general effect of peripheral melanocortin on adipocytes, another genetic form of obesity, in lep^ob/ob mice, was treated with the α-MSH analog. In this experiment, the mice received leptin or the α-MSH analog alone, and in combination.
Briefly, obese lep^ob/ob mice at age 2 months (2 per group) received daily either: (1) 3 μg of α-MSH analog (described in Examples 2 and 3 above); (2) 3 μg of recombinant mouse leptin; (3) 3 μg of α-MSH analog and 3 μg of recombinant mouse leptin in combination; or (4) saline. The compounds were delivered intraperitoneally once daily, 1-2 hours before the onset of darkness.

ob/ob mutant mice [2] = assay: Weight gain and food intake in ob/ob mutants treated with leptin, MSH analog or both (Example 5)
Procedure: Leptin deficient (ob/ob) mutants show both hyperphagia and “increased metabolic efficiency” as witnessed by their ability to gain weight even when pair-fed with normal congenic controls. To determine the effects of leptin and MSH on food intake and weight gain, four sets of ob/ob mutants were treated with leptin, an MSH analog, both together, or vehicle alone. The MSH analog [Ac-Cys^4, D-Phe^7, Cys^10]α-MSH (4-13) was purchased from Peninsula Laboratories (Belmont, Calif.). Mice were treated with daily injections of 7 micrograms of each, both or neither.

ob/ob mutant mice [3] = assay: Core temperature of ob/ob mutants exposed to 4° C. after MSH analog (Example 5); details: 7 micrograms; 5 hours without food, then 4° C. for 65 minutes; v. vehicle
Procedure: In 1977, the decreased ability of ob/ob mutants to maintain body temperature at 4° C. was noted. This preceded the onset of obesity in these mice. In view of the evidence that MSH regulates adipocyte metabolism, the present inventors hypothesized that the low levels of circulating MSH in leptin deficient (ob/ob) mutants was responsible for the impaired thermal regulation. To test this, ob/ob mutants were injected with 7 micrograms of MSH analog or vehicle only as described above. The mice were left without food for 5 hours and then exposed to 4° C. for 65 minutes. Their core temperatures were measured periodically by transfer to a coldroom (4° C.) where core temperatures were measured using a digital thermometer fitted with a rectal probe (Atkins Technical Inc., Gainesville, Fla.). […] As the mice had no opportunity to eat between injection of the MSH analog and the cold challenge, food intake cannot be responsible for the altered thermal regulation.

[4] = tested on: ob/ob mutant mice (C57BL/6J-Lep^ob); assay: Circulating MSH levels by RIA in ob/ob mutants after leptin (Example 5); details: leptin 7 microgram/day i.p.; two hours after the tenth daily injection
Procedure: To test the inductive ability of leptin on circulating MSH levels, ob/ob mutants (ob/ob mutant mice (C57BL/6J-Lep^ob) and congenic controls were purchased from the Jackson Laboratory, Bar Harbor, Me.) were treated with leptin (7 microgram/day) or with vehicle alone (Murine recombinant leptin was kindly provided by Dr. A. F Parlow through the National Hormone and Pituitary Program (NHPP); hormones were diluted to 70 micrograms per milliliter in PBS; mice were injected intraperitoneally with 0.1 mL). Two hours after the tenth daily injection, blood samples were drawn from the retro-orbital sinus and analyzed for MSH levels by RIA following the manufacturer's instructions (Peninsula Laboratories, Belmont, Calif.).

[5] = daily injections of 7 micrograms

## [Ac-Cys^4, D-Phe^7, Cys^10]α-MSH (4-13) amide [MSH analog]
[1]; 1 microgram (~1 nmol) i.p. daily, mutant female mice, listed as MSH-agonist
  weight loss, % of excess weight by 2 weeks: 46 % of excess weight
[1]; 1 microgram (~1 nmol) i.p. daily, mutant female mice, listed as α-MSH agonist
  weight loss, % of excess weight by 2 weeks: over 40 % of excess weight
[1]; 1 microgram (~1 nmol) i.p. daily, mutant female mice, p<0.1 at day 8
  weight loss, % of excess weight within one week: 38 % of excess weight
[1]; after 16-day treatment
  time until mutant mice started to gain weight after MSH injections were stopped: about 10 days
[1]; another two weeks after onset of regain
  weight regain after MSH injections were stopped: reached close to their pretreatment weight
[1]; second week of treatment, mutant mice
  weight lost during one week under MSH analog treatment: 0.5 g
[1]; second week of treatment, mutants
  food intake during one week under MSH analog treatment: 22.7 g
[1]; third week after termination, mutant mice
  weight gained in one week after MSH analog treatment had been stopped for two weeks: 1.7 g
[1]; third week after termination, mutants
  food intake in one week after MSH analog treatment had been stopped for two weeks: 35.7 g
[1]; third week after termination, p<0.005
  excess food intake of mutants over wildtypes after treatment stop: 11.5 g
[1]; treated for two weeks
  coat pigmentation: lost their yellowish tinge
Wildtype female mice; listed as MSH-agonist
  weight loss in wildtype littermates: no significant weight loss
Wildtype female mice; listed as α-MSH agonist
  weight loss in wildtype littermates: did not lose significant weight
Wildtype female mice; second week of treatment, wildtype littermates
  weight gained during one week under MSH analog treatment: 0.3 g
Wildtype female mice; second week of treatment, wildtypes
  food intake during one week under MSH analog treatment: 20.7 g
Wildtype female mice; third week after termination, wildtype littermates
  weight gain in one week after MSH analog treatment had been stopped for two weeks: 0.3 g
Wildtype female mice; third week after termination, wildtypes
  food intake in one week after MSH analog treatment had been stopped for two weeks: 24.2 g
POMC null mutant mice
  food intake under MSH analog: decreases food intake
  weight change under MSH analog: lose excess weight
Wildtype mice
  food intake under MSH analog: decreases food intake
  weight regulation under MSH analog: maintaining their body weight constant
Obese lep^ob/ob mice
  total weight change over a period of 10 days compared to untreated controls: slowed weight gain by almost half
ob/ob mutant mice [2]; 7 micrograms of each, daily
  effect of MSH analog added to leptin on weight: inability of peripheral MSH analog to supplement the weight reducing effect
ob/ob mutant mice [2]; [5]
  effect on weight gain compared with effect on food intake: greater on weight gain than on food intake
  weight gain: effectively decreased weight gain; also recorded: decreases weight gain
ob/ob mutant mice [3]
  core temperature / thermal homeostasis at 4° C.: maintained their core temperature much better; also recorded: increases thermal homeostasis

B1: leptin: recombinant mouse leptin, product of the ob gene, provided through the National Hormone and Pituitary Program (protein, UniProt P41160 22-167, looked up)
Leptin: VPIQKVQDDTKTLIKTIVTRINDISHTQSVSAKQRVTGLDFIPGLHPILSLSKMDQTLAVYQQVLTSLPSQNVLQIANDLENLRDLLHLLAFSKSCSLPQTSGLQKPESLDGVLEASLYSTEVVALSRLQGSLQDILQQLDVSPEC
Obese lep^ob/ob mice
  total weight change over a period of 10 days compared to untreated controls: little effect on preventing further weight gain
[4]
  circulating MSH levels: approached those found in normal control mice; also recorded: induces almost normal levels of circulating MSH
ob/ob mutant mice [2]; [5]
  weight gain: effectively decreased weight gain
